Test results reported in patent publication US20020058699A1, “Methods for treating seizure disorders by inhibiting MAPK pathway activation” (priority 2000, published 2002).
Entries after “also recorded” stand apart in the source; their conditions may differ. Each block holds one molecule with its values, some of them ahead of it.

Legend:
[1] = tested on: transient K+ currents composed of Kv4.2 subunits; test: Transient K+ currents recorded in distal dendrites of hippocampal area CA1 slices; format: cell-based
Experimental: MEK inhibitor PD098059 ([…]) or vehicle was applied to the hippocampal CA1 slices at least 20 minutes before recording conductance.
The functional consequence of MAPK inhibition on transient K^+currents composed of Kv4.2 subunits as recorded in distal dendrites of hippocampal area CA1 was evaluated. The MEK inhibitor PD098059 ([…]) or vehicle was applied to the hippocampal CA1 slices at least 20 min prior to recording conductance.

[2] = Behavioral observation of animals treated with SL327; format: in vivo, rat
[3] = tested on: kainate-induced limbic motor seizures; test: Kainate-induced seizures scored by Racine Classification Scale; format: in vivo, rat
Experimental: Male Sprague-Dawley rats (125-200 gm) were administered kainate at a dose of 15 mg/kg IP while the control animals (CTL) received vehicle IP (saline). Seizures were scored independently by two investigators in accordance with the Racine Classification Scale (0=no seizures, 1=mouth/face movements; 2=head nodding; 3=forelimb clonus; 4=rearing; and 5=rearing and falling). [Ben-Ari et al., Devl. Brain. Res. 14:284-288 (1985)]. Seizure score is shown plotted against time in the kainate-treated and control (vehicle-injected) animals.
(§1) Adult rats were injected IP with SL327 100 mg/kg or vehicle alone (PEG400/ETOH) were administered 30 minutes later with kainate or vehicle (saline). Animals were sacrificed at following 1 hour of kainate-induced seizures or three hours after kainate injection. Hippocampal regions CA1, CA3, and dentate were removed and processed for Western blotting, as described in Example 1.
Animals were treated as described in Example 2 except that SL327 was administered at 400 mg/kg.

[4] = tested on: ERK MAPK (p42 and p44); test: Hippocampal ERK activation by Western blotting (phospho-ERK and total ERK); format: in vivo, rat; details: for basal ERK phosphorylation: CTL+SL327 400 mg/kg; for kainate-induced ERK phosphorylation: KA+SL327 400 mg/kg; for basal ERK activation (phospho-ERK): control+SL327 100 mg/kg; for kainate-induced ERK activation (phospho-ERK): kainate+SL327 100 mg/kg; for ERK activation (phospho-ERK): kainate+vehicle (PEG400/ETOH)
Experimental: Hippocampal ERK activation was quantified by Western blotting using the method described by Atkins el al.[Atkins et al., Nat. Neurosci. 1:602-609 (1998)] with minor modifications. In brief, animals were sacrificed at 30 minutes and after 1 hr of class 5 seizures (150 min post injection) and the hippocampus was dissected. CA1, CA3 and dentate subregions were dissected in ice-cold saline and homogenates prepared by extracting with denaturing detergent. Protein concentrations were deteremined by Bradford Assay. Homogenates were subjected to Western blotting (immunoblots) prepared by routine methods (for example, see Harlow and Lane, in ANTIBODIES: A LABORATORY MANUAL, Cold Spring Harbor Laboratory Press (1988)). Blotted protein was detected using antibodies to total ERK (1:10,000) and dually phosphorylated, activated ERK MAPK (p42 and p44)(1:1000)(Cell Signaling). Enzyme activity associated with a secondary antibody was detected by incubation with Enhanced Chemiluminescent Reagent (BioRad Laboratories, Hercules Calif.) as substrate. Immunoreactivity of the total ERK and dually phosphorylated activated ERK MAPK in the blot was quantified using densitometry (Scion) for representative blots of p42 and analyzed by Student's t-test.
as §1
ERK phosphorylation in brain tissue was evaluated in kainate challenged animals pretreated with 400 mg/kg SL327. […] CA1, CA3, and dentate were dissected and processed for Western blotting as described in Example 1. […] Tukey's Multiple Comparison Test: ***p<0.001.

[5] = tested on: Kv4.2; test: Phospho-Kv4.2 Western blotting of hippocampal membrane fractions from kainate and control animals; format: in vivo, rat
Experimental: Western blotting using the phospho-Kv4.2 antibody to the ERK sites was performed on membrane fractions from kainate and control animals pretreated with SL327 as described in Example 1. See also Adams et al., J. Neurochem. 75:2277-2287 (2000), and Anderson et al., J. Biol. Chem. 275:5337-5346 (2000). Animals were sacrificed 30 minutes after kainate (before overt seizures) and 1 hour after continuous motor seizures.

[6] = tested on: CREB; test: Phospho-CREB Western blots of hippocampus; format: in vivo, rat
Experimental: Western blots prepared using CA1, CA3 and dentate regions of the hippocampus from rats following kainate-induced status epilepticus (KA, n=3) or vehicle alone (CTL, n=3) were performed using phospho-CREB antibodies. […] There is a small but significant decrease in CREB phosphorylation in CA3 (CA3 80.4±9.0%; *p<0.05, ***p<0.001).
Hippocampal region CA1 was removed 2 hours after rats were treated IP with the MEK inhibitor, SL327 (100 mg/kg) or vehicle alone. Western blots were developed using the phosho-CREB antibody.

[7] = tested on: Kv4.2; details: U0126 20 μM, rat hippocampal slices, CA1
Experimental: Rat hippocampal slices were bathed in vehicle with MEK inhibitor U0126 (20 μM) or vehicle alone (CTL).

[8] = tested on: phospho-ERK; test: Phospho-ERK immunohistochemistry of hippocampus; format: in vivo, rat; details: 150 min after kainate; stratum oriens of CA1, stratum radiatum of CA1 and CA3, dentate hilus, mossy fiber inputs to CA3
Experimental: Immunohistochemical analysis of stained neural tissue was performed as described by Varga et al., Learn Mem 7;321-322 (2000), with the following modifications. In this case, kainate and control animals were sacrificed at 150 minutes following injection, while in stage 5 seizures for about 1 hour. After tissue fixation, 20-micron sections were thaw-mounted and incubated in 0.3% H2O2 in methanol for 30 minutes at RT, washed in PBST (PBS containing 0.2% Triton X-100), and blocked in PBST containing 5% normal goat serum (NGS). Sections were then incubated with the phospho-ERK antibody (1:100) overnight, washed with PBST, and incubated with a 1:200 dilution of goat anti-rabbit biotinylated secondary antibody for 30 minutes at RT. After washing and incubation with a 1:50 dilution of ABC reagent (Pierce) for 30 minutes at RT, sections were again washed in PBST and then stained using metal enhanced DAB. Sections were then rinsed, cleared, and coverslipped using a xylene based medium.

[9] = tested on: phospho-Kv4.2; test: Phospho-Kv4.2 immunohistochemistry of hippocampus; format: in vivo, rat; details: after kainate-induced seizures; stratum oriens and radiatum of CA1 and CA3, dentate hilus
Experimental: [insert*: see symbol after “antibody”] Immunohistochemistry using phospho-Kv4.2 antibody (phospho-Kv4.2) to the ERK sites was performed as described in Example 1 for the same animal groups. […] These areas include stratum oriens and stratum radiatum of areas CA1 and CA3 and the dentate hilus.

[10] = SL327 100 mg/kg IP 30 min before kainate
[11] = vehicle-treated kainate group (no SL327)

SMILES: COc1cccc(-c2cc(=O)c3ccccc3o2)c1N [PD098059, 2-(2′-amino-3′-methoxyphenyl)-oxanaphthalen-4-one]
effect on conductance / voltage-dependence of K+ currents in dendrites ([1]; MEK inhibitor applied to hippocampal CA1 slices at least 20 min before recording): hyperpolarizing shift; also recorded: Conductance with inhibitor was increased compared to controls at almost all voltages applied | V½ of steady-state activation, after compound ([1]; as printed: after compound, PD098059 50 μM applied at least 20 min before recording, n=10): −2 mV | V½ of steady-state activation, before compound ([1]; as printed: before compound, n=7): −9 mV

locomotor activity ([2]; SL327 400 mg/kg, some animals in kainate and control groups): increase in locomotor activity
SMILES: N#CC(=C(N)Sc1ccc(N)cc1)c1ccccc1C(F)(F)F [SL327, Z- and E-α-[amino[(4-aminophenyl)thio]methylene]-2-(trifluoromethyl)benzeneacetonitrile]
sedation ([2]; SL327 400 mg/kg, all groups): modest degree of apparent sedation | lethargy or other behavioral changes ([2]; control animals, SL327 100 mg/kg): No obvious lethargy or other behavioral changes | animals with class 5 seizures [3, 10]: 100% | block of kainate-induced seizures [3, 10]: did not block kainate-induced seizures | block of kainate-induced limbic motor seizures ([3]; SL327 400 mg/kg IP 30 min before kainate 15 mg/kg): blocks limbic motor status epilepticus; also recorded: effectively blocked kainate-induced limbic motor seizures | basal ERK phosphorylation ([4]; CA1): 8.4±7.2 % of CTL+Vehicle | basal ERK phosphorylation ([4]; CA3): 2.9±0.5 % of CTL+Vehicle | basal ERK phosphorylation ([4]; dentate): 3.1±0.8 % of CTL+Vehicle | kainate-induced ERK phosphorylation ([4]; CA1): 31.5±10.5 % of CTL+Vehicle | kainate-induced ERK phosphorylation ([4]; CA3): 26.2±10.8 % of CTL+Vehicle | kainate-induced ERK phosphorylation ([4]; dentate): 24.7±9.9 % of CTL+Vehicle | total ERK1/ERK2 MAPK protein ([4]; SL327 400 mg/kg pretreatment, total ERK antibody): no changes in total protein | basal ERK activation (phospho-ERK) ([4]; CA1): 46.05 (±15.89) % control | basal ERK activation (phospho-ERK) ([4]; CA3): 37.51 (±9.59) % control | basal ERK activation (phospho-ERK) ([4]; dentate): 32.16 (±11.46) % control | kainate-induced ERK activation (phospho-ERK) ([4]; CA1): 220.70 (±35.80) % control | kainate-induced ERK activation (phospho-ERK) ([4]; CA3): 143.60 (±22.26) % control | kainate-induced ERK activation (phospho-ERK) ([4]; dentate): 195.6 (±18.58) % control | phospho-Kv4.2 ([5]; KA+SL327 400 mg/kg, CA1): 152.8±41.4 % of CTL+SL327 | phospho-Kv4.2 ([5]; KA+SL327 400 mg/kg, CA3): 170.8±16.6 % of CTL+SL327 | phospho-Kv4.2 ([5]; KA+SL327 400 mg/kg, dentate): 66.6±10.36 % of CTL+SL327 | activated CREB (phospho-CREB) ([6]; CA1, 2 hours after SL327 100 mg/kg IP): reduces the amount of activated CREB | unspecified quantity, % of control ([1]; n=2, Control 85.55%): 61.83 % of control

SMILES: N#CC(=C(/N)Sc1ccccc1N)/C(C#N)=C(\N)Sc1ccccc1N [U0126]
detection by MAPK-Kv4.2 phospho-selective antibody (basal Kv4.2 phosphorylation) [7]: 61.14%±8.74 % of control

SMILES: C=C(C)[C@H]1CN[C@H](C(=O)O)[C@H]1CC(=O)O [kainate]
seizure class (Racine Classification Scale) ([3]; kainate 15 mg/kg IP, male Sprague-Dawley rats, within 90 min, persisted until 150 min): all of the animals studied developed class 5 seizures | animals progressed to Class 3 seizures [3, 11]: 1/9 | animals progressed to Class 5 seizures [3, 11]: 6/9 | animals that developed limbic motor seizures [3, 11]: 78% | animals with no evidence of motor seizures [3, 11]: 2/9 | phospho-ERK staining [8]: increased greatly | phospho-ERK2 immunoreactivity ([4]; CA1, 30 min after kainate 15 mg/kg IP, prior to behavioral seizures): 218.9 (±40.66) % CTL | phospho-ERK2 immunoreactivity ([4]; CA1, 150 min after kainate, class 5 seizures): 165.5±16.5 % of control | phospho-ERK2 immunoreactivity ([4]; CA3, 30 min after kainate 15 mg/kg IP): 206.80 (±31.61) % CTL | phospho-ERK2 immunoreactivity ([4]; CA3, 150 min after kainate, class 5 seizures): 153.1±10.3 % of control | phospho-ERK2 immunoreactivity ([4]; dentate, 30 min after kainate 15 mg/kg IP): 305.50 (±58.26) % CTL | phospho-ERK2 immunoreactivity ([4]; dentate, 150 min after kainate, class 5 seizures): 224.8±34.1 % of control | total MAPK immunoreactivity ([4]; kainate versus control, total MAPK antibody): No difference | ERK activation (phospho-ERK) ([4]; CA1): 215.40 (±24.19) % control | ERK activation (phospho-ERK) ([4]; CA3): 196.60 (±6.69) % control | ERK activation (phospho-ERK) ([4]; dentate): 219.60 (±8.82) % control | ERK phosphorylation of Kv4.2 ([5]; CA1, 30 min after kainate injection): 48.80±6.95 % control | ERK phosphorylation of Kv4.2 ([5]; CA3, 30 min after kainate injection): 128.70±29.12 % control | phospho-Kv4.2 ([5]; KA+Vehicle, CA1, after 1 hr limbic motor seizures): 535.5±84.1 % of CTL+Vehicle | phospho-Kv4.2 ([5]; KA+Vehicle, CA3, after 1 hr limbic motor seizures): 442.0±57.0 % of CTL+Vehicle | phospho-Kv4.2 ([5]; KA+Vehicle, dentate, after 1 hr limbic motor seizures): 1177.0±361.1 % of CTL+Vehicle | ERK phosphorylation of Kv4.2 ([5]; dentate, 30 min after kainate injection): 109.10±11.09 % control | CREB phosphorylation ([6]; CA1, kainate-induced status epilepticus): 162.9±29.4 % of control | CREB phosphorylation ([6]; CA3, kainate-induced status epilepticus): 80.4±9.0% | CREB phosphorylation ([6]; dentate, kainate-induced status epilepticus): 138.0±4.4 % of control | phospho-Kv4.2 staining [9]: increase in phospho-Kv4.2
